Measured values taken from paper PMC10801920 (Proceedings of the National Academy of Sciences of the …, 2024).

Key:
[1] = biological target: T1, CtSpartinL (Thermochaetoides thermophila, UniProt G0S883); test: FRET-based lipid transfer between tethered liposomes; assay type: biochemical; settings: 30 C, pH 8.0; labelled compound
T1 sequence (G0S883 7-480): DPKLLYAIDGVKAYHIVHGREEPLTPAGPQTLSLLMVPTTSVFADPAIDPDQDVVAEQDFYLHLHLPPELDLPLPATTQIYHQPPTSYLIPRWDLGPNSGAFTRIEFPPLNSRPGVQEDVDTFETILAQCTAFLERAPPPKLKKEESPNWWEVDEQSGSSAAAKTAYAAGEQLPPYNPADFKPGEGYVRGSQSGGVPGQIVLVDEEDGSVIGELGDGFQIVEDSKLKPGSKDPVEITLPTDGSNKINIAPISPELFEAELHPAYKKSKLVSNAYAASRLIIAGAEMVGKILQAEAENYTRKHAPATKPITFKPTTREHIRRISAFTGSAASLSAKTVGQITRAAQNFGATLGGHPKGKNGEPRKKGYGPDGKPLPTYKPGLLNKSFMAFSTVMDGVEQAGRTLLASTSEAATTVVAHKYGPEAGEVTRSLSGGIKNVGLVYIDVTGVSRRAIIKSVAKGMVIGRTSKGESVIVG

[2] = biological target: T2, CeSpartin (Caenorhabditis elegans, UniProt O44735); test: as above; assay type: biochemical; settings: 30 C, pH 8.0, labelled compound
T2 sequence (O44735 1-476): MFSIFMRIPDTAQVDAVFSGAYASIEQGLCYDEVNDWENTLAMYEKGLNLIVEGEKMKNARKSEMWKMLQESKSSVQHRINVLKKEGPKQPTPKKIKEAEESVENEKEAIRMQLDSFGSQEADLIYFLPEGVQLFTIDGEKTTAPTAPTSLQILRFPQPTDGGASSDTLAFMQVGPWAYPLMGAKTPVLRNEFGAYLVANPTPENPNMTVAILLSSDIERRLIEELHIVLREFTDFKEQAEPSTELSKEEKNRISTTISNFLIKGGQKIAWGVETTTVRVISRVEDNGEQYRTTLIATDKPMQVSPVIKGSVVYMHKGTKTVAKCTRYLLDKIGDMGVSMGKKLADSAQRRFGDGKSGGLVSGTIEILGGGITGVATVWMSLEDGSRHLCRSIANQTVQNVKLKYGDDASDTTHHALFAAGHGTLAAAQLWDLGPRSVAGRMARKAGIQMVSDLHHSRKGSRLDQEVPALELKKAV

[3] = biological target: T3, CtSpartinLSD (Thermochaetoides thermophila, UniProt G0S883); test: native gel comigration; assay type: binding; settings: on ice, 2 h; labelled compound; also transferred between liposomes
T3 sequence (G0S883 186-480): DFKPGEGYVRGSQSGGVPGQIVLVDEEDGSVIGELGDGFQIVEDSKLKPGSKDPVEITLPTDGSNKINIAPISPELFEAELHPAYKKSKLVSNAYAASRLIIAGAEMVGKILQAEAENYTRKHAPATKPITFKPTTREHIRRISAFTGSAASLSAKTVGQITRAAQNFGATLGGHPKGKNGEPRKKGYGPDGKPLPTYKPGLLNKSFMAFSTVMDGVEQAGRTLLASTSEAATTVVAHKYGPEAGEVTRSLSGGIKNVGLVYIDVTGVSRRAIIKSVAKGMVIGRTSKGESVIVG

[4] = biological target: C. elegans spartin (CeSpartin) (C. elegans); test: native gel or EMSA
[5] = biological target: spartin-like protein from Chaetomium thermophilum (CtSpartinL), residues 7-480 (Chaetomium thermophilum); test: native gel or EMSA
[6] = biological target: the molecule itself; test: native gel or EMSA

## CCCCCCCCCCCCCCCC(=O)OC[C@H](COP(=O)([O-])OCC[N+](C)(C)C)OC(=O)CCCCCNc1ccc([N+](=O)[O-])c2nonc12 [NBD-PC, 1-palmitoyl-2-{6-[(7-nitro-2-1,3-benzoxadiazol-4-yl)amino]hexanoyl}-sn-glycero-3-phosphocholine]
[1]
  FRET-based lipid transfer between tethered liposomes: addition of CeSpartin, HsSpartin or CtSpartinL to the liposomes all result in increased NBD fluorescence
[2]
  FRET-based lipid transfer between tethered liposomes: we observed fluorescence increases consistent with NBD-PC or NBD-PE transfer
[3]
  native gel comigration: senescence domain fragment comigrates with NBD-PC on native gels

## CCCCCCCCCCCCCCCC(=O)OC[C@H](COP(=O)(O)OCCN)OC(=O)CCCCCNc1ccc([N+](=O)[O-])c2nonc12 [NBD-PE, 1-palmitoyl-2-{6-[(7-nitro-2-1,3-benzoxadiazol-4-yl)amino]hexanoyl}-sn-glycero-3-phosphoethanolamine]
[2]; less robust than NBD-PC
  FRET-based lipid transfer between tethered liposomes: we observed fluorescence increases consistent with NBD-PC or NBD-PE transfer

## C. elegans spartin (CeSpartin) (natural protein)
[4]
  stoichiometry N: 3

## spartin-like protein from Chaetomium thermophilum (CtSpartinL), residues 7-480 (natural protein)
[5]
  stoichiometry N: 3

B1: human spartin (HsSpartin) (natural protein, UniProt Q8N0X7 1-666, looked up)
chain: MEQEPQNGEPAEIKIIREAYKKAFLFVNKGLNTDELGQKEEAKNYYKQGIGHLLRGISISSKESEHTGPGWESARQMQQKMKETLQNVRTRLEILEKGLATSLQNDLQEVPKLYPEFPPKDMCEKLPEPQSFSSAPQHAEVNGNTSTPSAGAVAAPASLSLPSQSCPAEAPPAYTPQAAEGHYTVSYGTDSGEFSSVGEEFYRNHSQPPPLETLGLDADELILIPNGVQIFFVNPAGEVSAPSYPGYLRIVRFLDNSLDTVLNRPPGFLQVCDWLYPLVPDRSPVLKCTAGAYMFPDTMLQAAGCFVGVVLSSELPEDDRELFEDLLRQMSDLRLQANWNRAEEENEFQIPGRTRPSSDQLKEASGTDVKQLDQGNKDVRHKGKRGKRAKDTSSEEVNLSHIVPCEPVPEEKPKELPEWSEKVAHNILSGASWVSWGLVKGAEITGKAIQKGASKLRERIQPEEKPVEVSPAVTKGLYIAKQATGGAAKVSQFLVDGVCTVANCVGKELAPHVKKHGSKLVPESLKKDKDGKSPLDGAMVVAASSVQGFSTVWQGLECAAKCIVNNVSAETVQTVRYKYGYNAGEATHHAVDSAVNVGVTAYNINNIGIKAMVKKTATQTGHTLLEDYQIVDNSQRENQEGAANVNVRGEKDEQTKEVKEAKKKDK
[6]
  stoichiometry N: ~3
